Consider twelve compounds from ChEMBL document CHEMBL1201862, “PubChem BioAssay data set” (2004).

Test systems include HOP-62; UACC-257; TK-10; OVCAR-5; HT-29; A549; OVCAR-3; SF-539; MDA-N; SF-268; HCC 2998; IGROV-1; RXF 393; K562; COLO 205; ACHN; SW-620; KM12.
Holding throughout (assay): inhibition of tumour cell growth, NCI panel, 48 h

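Interpolation was linear, between the two tested concentrations surrounding the appropriate level; five concentrations were tested over 48 hours in 96-well plates. GI50 marks 50% less growth.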 Activity calls are given as the source filed them. Cut-off read from the data, not from the text of the source: active = GI50 up to about 1.1 µM and inactive = higher.

For the compound `CCCCCCN1CCc2c(C)c(C#N)c3nc4ccccc4n3c21`, the GI50 in the experiment with HOP-62 is 92.9 µM (inactive); in the experiment on UACC-257, 16.3 µM (inactive); in the experiment with TK-10 it was > 100 µM (inactive); with OVCAR-5, > 100 µM (inactive); in the experiment on HT-29 it was 18.5 µM (inactive); in the experiment on A549, 50.2 µM (inactive). Moreover, the GI50 with OVCAR-3 was 11.6 µM (inactive); with SF-539, > 100 µM (inactive); in the experiment with MDA-N, 22.7 µM (inactive); in the experiment on SF-268, > 100 µM (inactive); in the experiment with HCC 2998 it was 49.3 µM (inactive); with IGROV-1, > 100 µM (inactive). For the same compound, the GI50 in the experiment on RXF 393 is 20.7 µM (inactive); with K562 it was > 100 µM (inactive); with COLO 205, 29.9 µM (inactive); with ACHN, > 100 µM (inactive); in the experiment with SW-620 it was 23.2 µM (inactive).
With `CN(C)C(=O)N1N[C@H](c2ccccc2)[C@@H]1c1ccccc1`, the GI50 in the experiment with HOP-62, in the experiment on UACC-257, in the experiment on TK-10, in the experiment on A549, with OVCAR-3 and in the experiment with SF-539 was > 100 µM (inactive) each time. Further, the GI50 in the experiment with MDA-N was > 100 µM (inactive); in the experiment on HCC 2998, > 100 µM (inactive); in the experiment on IGROV-1 it was > 100 µM (inactive); in the experiment with RXF 393, 13.5 µM (inactive); in the experiment on K562, > 100 µM (inactive); in the experiment with KM12, > 100 µM (inactive). The GI50 in the experiment on COLO 205, in the experiment with ACHN and in the experiment with SW-620 was > 100 µM (inactive) throughout.
For the compound `Cc1cc(=O)oc2cc(OS(C)(=O)=O)ccc12`, the GI50 in the experiment on HOP-62, in the experiment on UACC-257, with TK-10, in the experiment with OVCAR-5, in the experiment on HT-29 and in the experiment on A549 was > 100 µM (inactive) each time. Further, the GI50 in the experiment on OVCAR-3, with SF-539, in the experiment on MDA-N, with SF-268, in the experiment on HCC 2998 and with IGROV-1 was > 100 µM (inactive) in each case. The GI50 in the experiment with RXF 393, with K562, with COLO 205, in the experiment with ACHN and in the experiment on SW-620 was > 100 µM (inactive) in each case.
Consider `C#CCCOC1(OC)N=NC(C)(C)O1` (centres undefined), for which the GI50 in the experiment on HOP-62, with UACC-257, with OVCAR-5, with HT-29, in the experiment on A549 and in the experiment with OVCAR-3 was > 100 µM (inactive) each time. Moreover, the GI50 with SF-539, in the experiment on MDA-N, in the experiment on SF-268, in the experiment on HCC 2998, with IGROV-1 and with RXF 393 was > 100 µM (inactive) throughout. In addition, the GI50 with K562, in the experiment with KM12, in the experiment with COLO 205, in the experiment with ACHN and in the experiment with SW-620 was > 100 µM (inactive) each time.
Consider `C[n+]1c2ccccc2n2c3ccccc3c(NCCCN3CCOCC3)c(C#N)c21`, for which the GI50 in the experiment on HOP-62 is 1.27 µM (inactive); with UACC-257, 2.99 µM (inactive); in the experiment with TK-10, 1.58 µM (inactive); in the experiment on OVCAR-5, 1.44 µM (inactive); in the experiment on HT-29, 2.37 µM (inactive); in the experiment with A549 it was 3.33 µM (inactive). For the same compound, the GI50 was 2.61 µM (inactive) with OVCAR-3; 0.556 µM (active) in the experiment on SF-539; 1.04 µM (active) with MDA-N; 1.11 µM (active) in the experiment on SF-268; 1.27 µM (inactive) in the experiment on HCC 2998; 1.37 µM (inactive) with RXF 393. Besides, the GI50 is 1.73 µM (inactive) with K562; 1.61 µM (inactive) with KM12; 0.891 µM (active) in the experiment with COLO 205; 2.61 µM (inactive) in the experiment on ACHN; 0.849 µM (active) with SW-620.
`O=C1c2ccccc2C2(c3ccc(Cl)cc3)N[C@@H]3CCCC[C@@H]3N12` (some centres undefined): the GI50 with HOP-62, in the experiment with UACC-257, in the experiment on TK-10, in the experiment with OVCAR-5, in the experiment with A549 and in the experiment with OVCAR-3 was > 100 µM (inactive) throughout. Also, the GI50 in the experiment with SF-539, in the experiment with MDA-N, in the experiment with SF-268, in the experiment on HCC 2998, with IGROV-1 and in the experiment on RXF 393 was > 100 µM (inactive) each time. In addition, the GI50 in the experiment with K562, in the experiment on KM12, with COLO 205, with ACHN and with SW-620 was > 100 µM (inactive) in each case.
As for `CC(=N\N=C\c1ccccn1)/C(C)=N/N=C/c1ccccn1`, the GI50 with HOP-62, with UACC-257, in the experiment on TK-10, in the experiment on OVCAR-5, in the experiment on HT-29 and in the experiment on A549 was > 100 µM (inactive) in each case. Also, the GI50 was > 100 µM (inactive) in the experiment with OVCAR-3; > 100 µM (inactive) in the experiment on SF-539; 51.6 µM (inactive) with MDA-N; > 100 µM (inactive) in the experiment on SF-268; > 100 µM (inactive) in the experiment with HCC 2998; > 100 µM (inactive) in the experiment on IGROV-1. Also, the GI50 with RXF 393, in the experiment on KM12, in the experiment on COLO 205, in the experiment on ACHN and in the experiment with SW-620 was > 100 µM (inactive) each time.
For `Cc1cccc(/C=N/NC(=S)N2CCCCCC2)n1`, the GI50 is 0.219 µM (active) in the experiment with HOP-62; 0.0418 µM (active) in the experiment on UACC-257; < 0.01 µM (active) in the experiment on HT-29; 0.111 µM (active) in the experiment on A549; < 0.01 µM (active) in the experiment on OVCAR-3; 0.205 µM (active) in the experiment with SF-539. The GI50 in the experiment with MDA-N was 0.406 µM (active); in the experiment with SF-268, < 0.01 µM (active); with HCC 2998, 0.468 µM (active); with IGROV-1, < 0.0399 µM (active); in the experiment with RXF 393, 0.515 µM (active); in the experiment on K562 it was < 0.01 µM (active). Besides, the GI50 in the experiment on KM12 was 0.23 µM (active); in the experiment with COLO 205 it was < 0.0269 µM (active); in the experiment with ACHN it was 0.142 µM (active); in the experiment with SW-620, 0.0462 µM (active).
With `NC(=O)NC(=O)c1cccc(C(=O)NC(N)=O)n1`, the GI50 with HOP-62, in the experiment on UACC-257, in the experiment on TK-10, in the experiment on OVCAR-5, with HT-29 and in the experiment on A549 was > 100 µM (inactive) each time. Further, the GI50 with OVCAR-3, in the experiment on SF-539, with MDA-N, in the experiment with SF-268, with HCC 2998 and with RXF 393 was > 100 µM (inactive) each time. In addition, the GI50 with K562 is > 100 µM (inactive); with KM12, > 100 µM (inactive); in the experiment with COLO 205, > 10 µM (inactive); with ACHN it was > 100 µM (inactive); with SW-620 it was > 100 µM (inactive).
In the case of `O=Cc1c2c(cc3c1CC1(C3)Cc3cc4c(c(C=O)c3C1)CCC4)CCC2`, the GI50 is 17.1 µM (inactive) with HOP-62; 34.8 µM (inactive) in the experiment on UACC-257; 32.5 µM (inactive) in the experiment with TK-10; > 100 µM (inactive) in the experiment on OVCAR-5; 31.3 µM (inactive) with HT-29; 30.3 µM (inactive) in the experiment on A549. Also, the GI50 was 24.1 µM (inactive) in the experiment with OVCAR-3; 37.5 µM (inactive) with SF-539; 48.2 µM (inactive) in the experiment on MDA-N; 36.6 µM (inactive) in the experiment with HCC 2998; 17 µM (inactive) in the experiment with IGROV-1; 41.3 µM (inactive) in the experiment with RXF 393. The GI50 is 14.4 µM (inactive) in the experiment on K562, 27.2 µM (inactive) in the experiment on COLO 205 and 16.6 µM (inactive) in the experiment on ACHN.
With `CC(C)(C)OC(=O)NCCCC(=O)NC1(c2cc3ccccc3s2)CCCCC1`, the GI50 is 21.4 µM (inactive) with HOP-62; 13.6 µM (inactive) in the experiment on UACC-257; 29 µM (inactive) with TK-10; 13.1 µM (inactive) with HT-29; 25.6 µM (inactive) with A549; 16.3 µM (inactive) in the experiment with OVCAR-3. In addition, the GI50 in the experiment on SF-539 is 15.5 µM (inactive); in the experiment on MDA-N, 15.8 µM (inactive); in the experiment on SF-268, 17.9 µM (inactive); in the experiment with HCC 2998, 21.6 µM (inactive); in the experiment with IGROV-1, 18 µM (inactive); in the experiment on RXF 393 it was 9.42 µM (inactive). Moreover, the GI50 is 19.5 µM (inactive) with K562; 17 µM (inactive) in the experiment with KM12; 13.8 µM (inactive) in the experiment on COLO 205; 22.8 µM (inactive) with ACHN; 15.8 µM (inactive) in the experiment with SW-620.
Turning to `CC1=C(O)C(=O)C[C@]2(C)[C@H]3CC=C4[C@@H]5CC(C)(C)CC[C@@H]5C(=O)[C@H](O)[C@@]4(C)[C@]3(C)CC[C@@H]12`, the GI50 was 30.7 µM (inactive) in the experiment on HOP-62; > 50 µM (inactive) in the experiment on UACC-257; 23.9 µM (inactive) in the experiment with TK-10; > 50 µM (inactive) in the experiment with OVCAR-5; > 50 µM (inactive) in the experiment on HT-29; 24.8 µM (inactive) in the experiment on A549. Further, the GI50 was > 50 µM (inactive) in the experiment with OVCAR-3; 2.8 µM (inactive) in the experiment on SF-539; 47.3 µM (inactive) with MDA-N; > 50 µM (inactive) in the experiment with SF-268; 20.4 µM (inactive) with HCC 2998; 21.8 µM (inactive) in the experiment on IGROV-1. For the same compound, the GI50 in the experiment with RXF 393 was 10 µM (inactive); in the experiment on KM12, > 50 µM (inactive); with COLO 205, > 50 µM (inactive); in the experiment on ACHN, 41.4 µM (inactive); in the experiment on SW-620, > 50 µM (inactive).
